Blank lines part the entries; values can stand above or below the compound they belong to.
Columns and labels:
[1] = tested on: Myzus persicae (green peach aphid); experiment: Example B19: comparison with state of the art, Myzus persicae, systemic/feeding activity, curative; type: in vivo; details: for Death rate (%) after 6 days (systemic action): pea seedling roots in test solution, curative
[2] = tested on: Tetranychus urticae (two-spotted spider mite); experiment: Example B20: comparison with state of the art, Tetranychus urticae, feeding/residual contact activity, preventive; type: in vivo; details: for Death rate (%) after 8 days: bean leaf discs, mixed population, preventive
Description: Activity Against Tetranychus urticae (Two-Spotted Spider Mite)
(Mixed Population, Feeding/Residual Contact Activity, Preventive)
Bean leaf discs on agar in 24-well microtiter plates are sprayed with test solutions. […] 8 days later, discs are checked for egg mortality, larval mortality, and adult mortality.

[3] = tested on: Thrips tabaci (onion thrips); experiment: Example B18: comparison with state of the art, Thrips tabaci, feeding/residual contact activity, preventive; type: in vivo; details: for Death rate (%) after 6 days: sunflower leaf discs, mixed population, preventive
[4] = tested on: Diabrotica balteata (corn root worm); experiment: Example B17: comparison with state of the art, Diabrotica balteata, larvicide, growth regulation; type: in vivo; details: for Inhibition of growth (%) after 5 dsys: artificial diet MTP, L2 larvae
Description: After drying, the MTP's are infested with larvae (L2)(6-10 per well). After an incubation period of 5 days, samples are checked for growth regulation.

[5] = tested on: Myzus persicae (green peach aphid); experiment: Example B16: comparison with state of the art, Myzus persicae, feeding/residual contact activity, preventive; type: in vivo; details: for Death rate (%) after 6 days: sunflower leaf discs, mixed population, preventive
[6] = tested on: African bean aphid (Aphis craccivora); experiment: Example B21: insecticide seed treatment of sugarbeet seeds, reduction of aphids; type: in vivo; details: infested after 14 days, counted 7 days after infestation
Description: Insecticide Seed Treatment Sugarbeet seeds are treated with test compounds at various rates (mg a.i./seed). The seeds are sown into pots filled with soil. After placing the seeds on the soil surface they are further covered with soil. Before and during the bioassays, the plants are grown under optimal greenhouse conditions. After 14 days, the plants are infested with African bean aphid (Aphis craccivora) by placing one infested pea seedling containing approximately 150 aphids of a population of mixed developmental stages onto each plant. Seven days after infestation, the number of aphids is counted per plant. Each treatment group is replicated 10 times. Each replicate contains 1 plant. In this test, compounds listed in Tables A, B, C, D, E and F above show good activity.

Compound: CON1CCC2(CC1)NC(=O)C(c1cc(C)ccc1C)=C2OC(=O)C(C)(C)C [Compound A9]
Death rate (%) after 6 days (systemic action) ([1]; 50 ppm): 50%
Death rate (%) after 6 days (systemic action) ([1]; 200 ppm): 80%
insecticidal action compared with the compound from the state of the art ([1]; vs compound I-1-b-20 of WO1998/05638, Table B19): substantially better insecticidal action
Death rate (%) after 8 days ([2]; 12.5 ppm): 50%
Death rate (%) after 8 days ([2]; 50 ppm): 80%
Death rate (%) after 8 days ([2]; 200 ppm): 80%
insecticidal action compared with the compound of the state of the art at low application rates ([2]; low application rates (50 and 12.5 ppm), vs compound I-1-b-20 of WO1998/05638): far superior
insecticidal action compared with the compound from the state of the art ([2]; vs compound I-1-b-20 of WO1998/05638, Table B20): substantially better insecticidal action

Compound: CO[C@H]1CC[C@]2(CC1)NC(=O)C(c1c(C)cc(C)cc1C)=C2O [Ia-32, reference compound]
Death rate (%) after 6 days ([3]; 12.5 ppm): 25%
Death rate (%) after 6 days ([3]; 50 ppm): 25%
Death rate (%) after 6 days ([3]; 200 ppm): 25%

Compound: CON1CCC2(CC1)NC(=O)C(c1c(C)cc(C)cc1C)=C2O [Compound C2]
Death rate (%) after 6 days ([3]; 12.5 ppm): 90%
Death rate (%) after 6 days ([3]; 50 ppm): 100%
Death rate (%) after 6 days ([3]; 200 ppm): 100%
insecticidal action compared with the compound from the state of the art ([3]; vs compound Ia-32 of EP596298, Table B18): substantially better insecticidal action

Compound: CO[C@H]1CC[C@]2(CC1)NC(=O)C(c1cc(C)ccc1C)=C2OC(=O)C(C)(C)C [Compound I-1-b-20, reference compound]
Death rate (%) after 6 days (systemic action) ([1]; 200 ppm): 0%
Death rate (%) after 8 days ([2]; 12.5 ppm): 0%
Death rate (%) after 8 days ([2]; 50 ppm): 0%
Death rate (%) after 8 days ([2]; 200 ppm): 50%

Compound: COC1CCC2(CC1)NC(=O)C(c1cc(-c3ccc(Cl)cc3)ccc1C)=C2O (centres unmarked) [Compound I-1-a-16]
Inhibition of growth (%) after 5 dsys ([4]; 50 ppm): 0%
Inhibition of growth (%) after 5 dsys ([4]; 200 ppm): 0%
Death rate (%) after 6 days ([5]; 12.5 ppm): 0%
Death rate (%) after 6 days ([5]; 50 ppm): 50%

Compound: CON1CCC2(CC1)NC(=O)C(c1cc(-c3ccc(Cl)cc3)ccc1C)=C2O [Compound C6]
Inhibition of growth (%) after 5 dsys ([4]; 50 ppm): 50%
Inhibition of growth (%) after 5 dsys ([4]; 200 ppm): 75%
insecticidal action compared with the compound from the state of the art ([4]; vs compound 1-1-a-16 of WO1999/48869, Table B17): substantially better insecticidal action
Death rate (%) after 6 days ([5]; 12.5 ppm): 25%
Death rate (%) after 6 days ([5]; 50 ppm): 90%
insecticidal action compared with the compound from the state of the art ([5]; vs compound 1-1-a-16 of WO1999/48869, Table B16): substantially better insecticidal action

Compound: CON1CCC2(CC1)NC(=O)C(c1cc(C)ccc1C)=C2O [Compound C1, 3-(2,5-dimethyl-phenyl)-4-hydroxy-8-methoxy-1,8-diaza-spiro[4.5]dec-3-en-2-one]
Efficacy, % (reduction of aphids compared to untreated control plants) ([6]; 0.03 mg a.i./seed): 65%
Efficacy, % (reduction of aphids compared to untreated control plants) ([6]; 0.1 mg a.i./seed): 96%
Efficacy, % (reduction of aphids compared to untreated control plants) ([6]; 0.3 mg a.i./seed): 99%
Efficacy, % (reduction of aphids compared to untreated control plants) ([6]; 0.6 mg a.i./seed): 99%

melting point: 229 to 230 °C
Compound: CON1CCC2(CC1)NC(=O)C(c1cc(Br)c(F)cc1C)=C2O [Compound C19, 3-(5-Bromo-4-fluoro-2-methyl-phenyl)-4-hydroxy-8-methoxy-1,8-diaza-spiro[4.5]dec-3-en-2-one]

Compound: C=CCOC(=O)OC1=C(c2cc(C)ccc2C)C(=O)NC12CCN(OC)CC2 [Compound A5]
Efficacy, % (reduction of aphids compared to untreated control plants) ([6]; 0.03 mg a.i./seed): 37%
Efficacy, % (reduction of aphids compared to untreated control plants) ([6]; 0.1 mg a.i./seed): 97%
Efficacy, % (reduction of aphids compared to untreated control plants) ([6]; 0.3 mg a.i./seed): 99%
Efficacy, % (reduction of aphids compared to untreated control plants) ([6]; 0.6 mg a.i./seed): 100%
